According to paper PMC7541927 (Preventive Nutrition and Food Science, 2020):

Biological target: T1, α-amylase from porcine pancreas (Sus scrofa, UniProt P00690)
T1 sequence (P00690 16-511): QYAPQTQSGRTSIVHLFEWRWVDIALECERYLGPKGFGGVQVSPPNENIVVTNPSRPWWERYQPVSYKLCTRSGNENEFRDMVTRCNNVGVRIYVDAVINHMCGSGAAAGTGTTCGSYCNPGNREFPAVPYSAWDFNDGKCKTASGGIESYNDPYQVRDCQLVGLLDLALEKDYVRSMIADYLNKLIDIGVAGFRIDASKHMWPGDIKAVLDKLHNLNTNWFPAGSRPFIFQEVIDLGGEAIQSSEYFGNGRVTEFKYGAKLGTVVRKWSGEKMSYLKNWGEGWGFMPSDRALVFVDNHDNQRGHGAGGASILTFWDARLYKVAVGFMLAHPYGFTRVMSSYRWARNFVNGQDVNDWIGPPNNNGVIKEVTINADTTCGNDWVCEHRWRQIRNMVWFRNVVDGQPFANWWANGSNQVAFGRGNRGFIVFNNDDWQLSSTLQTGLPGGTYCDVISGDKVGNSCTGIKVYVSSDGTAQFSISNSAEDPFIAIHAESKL
Test: biochemical

O=C(O)CC(O)(CC(=O)O)C(=O)O [citric acid]
IC50: 640 ± 40 µM
